Measurements: US20240325544A1, “CATIONIC LIPID FOR COVALENT MODIFICATION OF PEPTIDES” (PharmalN Corporation, priority 2023, published 2024)
Marks after values point to notes of the source that are not given here. Bridge positions count the residues as written; N and C are the ends. Square brackets hold non-standard residues; d marks the D form. Peptide text beside a SMILES is read from it. * marks the point of attachment. C18 diacid = O=C(O)CCCCCCCCCCCCCCCCC(=O)*; Palmitoyl = CCCCCCCCCCCCCCCC(=O)*; Dab = NCC[C@H](N)C(=O)O; Dap = NC[C@H](N)C(=O)O; AEEA = NCCOCCOCC(=O)O; GABA = NCCCC(=O)O

Key:
[1] = Clinically observable adverse effects of cationic alkyl moieties after subcutaneous bolus in rats (Table 1); type: in vivo, rat; conditions: male, Sprague-Dawley, rat, in vivo, sc, tested at 3.0, 5.0 or 10 μmol/kg, lethargy is considered maximum tolerated bolus dose, read-out: Lethargy* in n = 3
Description: (§1) Drug administration and observation: Each rat received a subcutaneous injection of a cationic alkyl modifier (SEQ ID NO: 1-22; listed in Table 1 below) in a buffer of sterile water adjusted to a pH between 4.5-5, with an initial bolus dose of 5.0 μmol/kg and an injection volume of 1.0 mL/kg. The bolus dose level was adjusted based on observations, and animals were monitored closely for lethargy, ataxia, swelling, or discoloration during the first 4 hours post-injection and hourly thereafter. As used herein, “ataxia” means a clinical sign observed as poor muscle control that causes clumsy voluntary movements. It may cause difficulty with mobility, coordination, and eye movements. As used herein, “lethargy” means a clinical sign observed as inability or unwillingness to resume normal activity characterized by exploring and alertness. Lethargic rats are easily observed by displaying little to no activity and/or unwillingness to explore around, half closed eyes, and hunched posture. As used herein, “swelling” means a clinical sign observed as the enlargement or engorgement of body parts with blood or fluid and is associated with visible redness (discoloration). If no swelling occurred, dose level was increased to 10 μmol/kg; if swelling was present, bolus dose level was decreased to 3.0 μmol/kg. A wash-out period of 1 week was allowed between bolus doses, and animals were humanely euthanized through CO2 asphyxiation after final observation.

[2] = test system: Sprague Dawley rats; assay: as above; type: in vivo, rat; conditions: tested at 3.0, 5.0 or 10 μmol/kg; for Ataxia** in n = 3: ataxia is bolus dose limiting toxicity; for Swelling and/or Discoloration in n = 3: dose at which sign was seen
Description: as §1

[3] = Plasma concentration of respective natriuretic peptide by ELISA after SC bolus in CD-1 mice (pharmacokinetics, Table 3); conditions: male, CD-1, mouse, in vivo, sc, 1 mg/kg
Description: (§2) The test articles were formulated or dissolved in sterile water for injection on the same day of administration. […] Blood samples were collected via retro-orbital bleed at 2- and 6-hours post-injection, with two bleedings per animal at two different timepoints. The samples were collected in K2EDTA tubes, processed by centrifugation (2000×g; 15 m 4 eC within 30 minutes after collection), and the resulting plasma samples were stored at −80° C. Biochemical analysis: The plasma concentration of the respective natriuretic peptide was analyzed using commercially available ELISA kits from Phoenix Pharmaceuticals (Burlingame, CA): ANP ELISA (cat #EKE-005-06), BNP ELISA (cat #EKE-011-03), and CNP ELISA (cat #EKE-012-03). […] Plasma cGMP was analyzed using a commercially available kit from Abcam (ab133052, Waltham, MA).

[4] = test system: cGMP; assay: Plasma cGMP after SC bolus of natriuretic peptides in CD-1 mice (pharmacodynamics, Table 3); type: in vivo; conditions: SC bolus 1.0 mg/kg (≤0.45 μmol/kg), baseline 10 +/−8 pmol/ml, n = 3-5
Description: as §2

level at 2 h [3] [ng/mL]	level at 6 h [3] [ng/mL]	Structure (SMILES)	MTD [1] [µmol/kg]	Ataxia** in n = 3 [2] [µmol/kg]	Swelling and/or Discoloration in n = 3 [2] [µmol/kg]	Plasma concentration of cGMP, 2 hr [4]	Plasma concentration of cGMP, 6 hr [4]
		CCCCCCCCCCCCCCCC(=O)NCCOCCOCC(=O)NCCOCCOCC(=O)N[C@@H](CCCCN)C(=O)N[C@@H](CCCCN)C(=O)O [SEQ ID NO: 5, CH3(CH2)14(C═O)-Aeea-Aeea-KK]	≥ 5	≥5			
		CCCCCCCCCCCCCCCC(=O)NCCOCCOCC(=O)NCCOCCOCC(=O)N[C@@H](CN)C(=O)N[C@@H](CCN)C(=O)O [SEQ ID NO: 13, CH3(CH2)14(C═O)-Aeea-Aeea-Dap-Dab] ({Palmitoyl-AEEA-AEEA}-[Dap]-[Dab]-OH; C-terminus assumed)	> 10	>10	>10		
		NCC[C@H](NC(=O)[C@H](CCN)NC(=O)COCCOCCNC(=O)COCCOCCNC(=O)CCCCCCCCCCCCCCCCC(=O)O)C(=O)O [SEQ ID NO: 21, (HOOC)(CH2)16(C═O)-Aeea-Aeea-Dab-Dab] ({C18 diacid-AEEA-AEEA}-[Dab]-[Dab]-OH; C-terminus assumed)	> 10	>10	>10		
		CCCCCCCCCCCCCCCC(=O)N[C@@H](CCC(=O)O)C(=O)NCCOCCOCC(=O)NCCOCCOCC(=O)N[C@@H](CCN)C(=O)N[C@@H](CCN)C(=O)O [SEQ ID NO: 16, CH3(CH2)14(C═O)-E-Aeea-Aeea-Dab-Dab] (Palmitoyl-E[AEEA][AEEA][Dab][Dab]-OH; C-terminus assumed)	> 10	>10	>10		
		CCCCCCCCCCCCCCCC(=O)NCCCC(=O)NCCCC(=O)N[C@@H](CCN)C(=O)N[C@@H](CCN)C(=O)O [SEQ ID NO: 11, CH3(CH2)14(C═O)-γAbu-γAbu-Dab-Dab] ({Palmitoyl-GABA-GABA}-[Dab]-[Dab]-OH; C-terminus assumed)	> 10	>10	>10		
75.5	41	CC[C@H](C)[C@@H]1NC(=O)[C@H](CCCNC(=N)N)NC(=O)[C@H](CC(=O)O)NC(=O)[C@H](CC(C)C)NC(=O)[C@H](CCCCN)NC(=O)[C@H](CC(C)C)NC(=O)CNC(=O)[C@H](Cc2ccccc2)NC(=O)[C@@H](NC(=O)CNC(=O)[C@H](CCCCN)NC(=O)[C@H](CO)NC(=O)[C@H](CC(C)C)NC(=O)CNC(=O)[C@H](CCN)NC(=O)[C@H](CCN)NC(=O)COCCOCCNC(=O)COCCOCCNC(=O)CCCCCCCCCCCCCCCCC(=O)O)CSSC[C@@H](C(=O)O)NC(=O)CNC(=O)[C@H](CC(C)C)NC(=O)CNC(=O)[C@H](CO)NC(=O)[C@H](CCC(N)=O)NC(=O)[C@H](CO)NC(=O)CNC1=O [SEQ ID NO: 34] ({C18 diacid-AEEA-AEEA}-[Dab][Dab]GLSKGCFGLKLDRIGSQSGLGC-OH; disulfide 8-24; C-terminus assumed)				15.78* pmol/mL	33.6 pmol/mL
29.2	16.8	CCCCCCCCCCCCCCCC(=O)NCCOCCOCC(=O)NCCOCCOCC(=O)NCCOCCOCC(=O)N[C@@H](CN)C(=O)N[C@@H](CN)C(=O)N[C@@H](CN)C(=O)NCC(=O)N[C@@H](CC(C)C)C(=O)N[C@@H](CO)C(=O)N[C@@H](CCCCN)C(=O)NCC(=O)N[C@H]1CSSC[C@@H](C(=O)O)NC(=O)CNC(=O)[C@H](CC(C)C)NC(=O)CNC(=O)[C@H](CO)NC(=O)[C@H](CCC(N)=O)NC(=O)[C@H](CO)NC(=O)CNC(=O)[C@H]([C@@H](C)CC)NC(=O)[C@H](CCCNC(=N)N)NC(=O)[C@H](CC(=O)O)NC(=O)[C@H](CC(C)C)NC(=O)[C@H](CCCCN)NC(=O)[C@H](CC(C)C)NC(=O)CNC(=O)[C@H](Cc2ccccc2)NC1=O [SEQ ID NO: 43] ({Palmitoyl-AEEA-AEEA-AEEA}-[Dap][Dap][Dap]GLSKGCFGLKLDRIGSQSGLGC-OH; disulfide 9-25; C-terminus assumed)				114.85**** pmol/mL	93.39**** pmol/mL
